From patent US10473640B2, “Drug selection for gastric cancer therapy using antibody-based arrays” (Société des Produits Nestlé S.A., priority 2006, dated 2019)

Columns and labels:
[1] = early Phase I; cited from earlier work
[2] = tested on: human xenograft models; details: dosed orally; cited from earlier work
[3] = tested on: CYP450; details: cited from earlier work
[4] = in vivo; cited from earlier work
[5] = target: T1, c-Met (Homo sapiens, UniProt P08581); assay: c-Met activation in HGF-treated HCC827 cells (proximity assay); format: cell-based; details: HCC827 lung cancer cells, FIG. 4
Excerpt: (§1) The multiplexed protein microarray platform described herein utilizes the formation of a unique immuno-complex requiring the co-localization of two detector enzyme-conjugated-antibodies once target proteins are captured on the microarray surface. The channeling events between two detector enzymes (glucose oxidase (GO) and horseradish peroxidase (HRP)) in proximity enables the profiling of a receptor tyrosine kinase (RTK) such as c-Met with extreme sensitivity. […] In particular, the multiplexed proximity assay is based on (1) a multiplexed protein microarray platform combined with (2) a triple-antibody-enzyme channeling signal amplification process. The unique and novel design is provided by the triple-antibody enzyme approach that confers ultra-high sensitivity while preserving specificity: • (1) The selected target is captured by target-specific antibodies printed in serial dilutions on a microarray surface. […] The detection and quantification of as few as ˜2-3×10^4 phosphorylation events is routinely achieved by this method, bringing its detection to a “single” cell level. In certain instances, this collaborative immunoassay configuration can be further applied to investigate protein interactions and activations.

[6] = tested on: HER2; assay: HER2 activation in HGF-treated HCC827 cells (proximity assay); format: cell-based; details: HCC827 lung cancer cells, FIG. 4
Excerpt: as §1

[7] = target: T1, c-Met; assay: c-Met activation in HGF-treated A431 cells (proximity assay); format: cell-based; details: A431 epidermoid carcinoma cells, FIG. 3
Method: (§2) The slide was incubated for two hours at room temperature. • 4) After six washes with TBS-Tween, 80 μl of detection antibodies for the proximity assay diluted in TBS-Tween/2% BSA/1% FBS was added to the slides. The incubation was for 2 hours at room temperature. • a) As a non-limiting example, the detection antibodies can comprise the following: (i) an anti-c-Met monoclonal antibody that is directly conjugated to glucose oxidase (GO); and (ii) a monoclonal antibody recognizing phosphorylated c-Met that is directly conjugated to horseradish peroxidase (HRP). • b) Alternatively, the detection step can utilize a biotin-conjugate of the monoclonal antibody recognizing phosphorylated c-Met. In these instances, after six washes, an additional sequential step of incubation with streptavidin-HRP for 1 hour is included. • c) Alternatively, the detection step can utilize an oligonucleotide-mediated glucose oxidase (GO) conjugate of the anti-c-Met antibody. […]
(§3) The multiplexed protein microarray platform described herein utilizes the formation of a unique immuno-complex requiring the co-localization of two detector enzyme-conjugated-antibodies once target proteins are captured on the microarray surface. […] The detection and quantification of as few as ˜2-3×10^4 phosphorylation events is routinely achieved by this method, bringing its detection to a “single” cell level. […]

[8] = tested on: HER2; assay: HER2 activation in HGF-treated A431 cells (proximity assay); format: cell-based; details: A431 epidermoid carcinoma cells, FIG. 3
Method: as §2, §3

[9] = target: T1, c-Met; details: cited from earlier work

T1 sequence (P08581 25-1390): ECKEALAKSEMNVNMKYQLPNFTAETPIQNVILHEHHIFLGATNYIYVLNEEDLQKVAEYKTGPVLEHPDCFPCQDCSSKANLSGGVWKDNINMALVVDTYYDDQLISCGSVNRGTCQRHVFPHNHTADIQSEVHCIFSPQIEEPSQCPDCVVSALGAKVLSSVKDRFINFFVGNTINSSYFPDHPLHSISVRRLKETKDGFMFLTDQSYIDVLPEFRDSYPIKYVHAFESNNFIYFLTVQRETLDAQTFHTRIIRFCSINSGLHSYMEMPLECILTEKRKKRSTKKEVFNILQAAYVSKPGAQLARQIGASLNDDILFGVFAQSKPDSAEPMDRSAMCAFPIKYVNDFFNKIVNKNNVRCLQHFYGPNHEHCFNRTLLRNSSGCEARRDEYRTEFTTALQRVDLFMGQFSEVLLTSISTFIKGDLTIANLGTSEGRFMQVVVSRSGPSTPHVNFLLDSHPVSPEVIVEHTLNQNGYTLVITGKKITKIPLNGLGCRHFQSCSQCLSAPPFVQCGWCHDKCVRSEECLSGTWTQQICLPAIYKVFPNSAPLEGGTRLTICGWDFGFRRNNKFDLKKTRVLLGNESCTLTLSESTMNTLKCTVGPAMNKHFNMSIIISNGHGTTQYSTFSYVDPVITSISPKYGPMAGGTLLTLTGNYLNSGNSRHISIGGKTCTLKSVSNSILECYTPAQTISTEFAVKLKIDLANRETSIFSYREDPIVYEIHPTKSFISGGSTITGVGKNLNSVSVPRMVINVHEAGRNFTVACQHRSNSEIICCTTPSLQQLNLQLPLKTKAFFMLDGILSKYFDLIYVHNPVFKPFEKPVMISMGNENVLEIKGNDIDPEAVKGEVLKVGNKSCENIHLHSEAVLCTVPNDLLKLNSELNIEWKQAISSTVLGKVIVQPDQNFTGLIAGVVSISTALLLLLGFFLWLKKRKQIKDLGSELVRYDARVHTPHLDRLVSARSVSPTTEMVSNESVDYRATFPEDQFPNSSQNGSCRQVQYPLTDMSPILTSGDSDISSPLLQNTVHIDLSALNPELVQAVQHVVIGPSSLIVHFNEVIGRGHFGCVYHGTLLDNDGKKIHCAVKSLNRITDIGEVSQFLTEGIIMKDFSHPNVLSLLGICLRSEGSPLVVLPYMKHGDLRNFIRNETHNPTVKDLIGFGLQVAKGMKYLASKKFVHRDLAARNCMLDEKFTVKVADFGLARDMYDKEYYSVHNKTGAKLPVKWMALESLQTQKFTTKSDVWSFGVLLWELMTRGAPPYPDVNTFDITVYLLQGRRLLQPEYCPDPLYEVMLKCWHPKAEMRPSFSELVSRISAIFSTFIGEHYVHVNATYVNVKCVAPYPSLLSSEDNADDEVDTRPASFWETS

CN(C[C@@H]1COCCO1)S(=O)(=O)Nc1ccc2ccc3ncc(-c4cnn(C)c4)cc3c(=O)c2c1 [MK-2461]
tolerability [1]: well tolerated

Cn1cc(-c2ccc3nnc(Sc4ccc5ncccc5c4)n3n2)cn1 [SGX523]
antitumor activity [2]: potent antitumor activity | toxicity [2]: no overt toxicity

COc1cc2c(Oc3ccc(NC(=O)C4(C(=O)Nc5ccc(F)cc5)CC4)cc3F)ccnc2cc1OCCCN1CCOCC1 [XL880]
CYP450 substrate / inhibitor / inducer [3]: substrate, but not an inhibitor or inducer | oral bioavailability [4]: good

HGF: c-Met ligand, hepatocyte growth factor, a multidomain glycoprotein
increase of c-Met phosphorylation [5]: about 4 fold | HER2 phosphorylation [6]: not affected | c-Met phosphorylation [7]: stimulated | HER2 phosphorylation [8]: slightly decreased

MetMAb: humanized, monovalent, antagonistic anti-c-Met antibody derived from the agonistic monoclonal antibody 5D5
binding to c-Met [9]: high affinity
